Experimental data published in ChEMBL document CHEMBL3301562, “MMV Box screening against Plasmodium falciparum protein kinases and aminoacyl tRNA synthetases”.

What was measured:
Assay type in all cases: functional
[1] = target: T1, Cdk-related protein kinase 6 (Plasmodium falciparum, UniProt O77239); assay: Final concentrations were 1.5 uM ATP, 5 mM MnCl2, and 15 ug/ml PK6 in a buffer of 100 mM Tris-HCl (pH 7.5). 50 ug/mL MBP was provided as the substrate; 10 uM staurosporine was used as a control inhibitor. Incubation time was 3 hours and 40 minutes.The catalytic activity of each kinase was considered proportional to ATP consumed, as determined from measurements of residual [ATP] with the luciferase-based reagent Kinase-Glo (Promega) following incubation. Luminescence (proportional to residual [ATP]) was measured on the plate readers FLx800 (BioTek Instruments, Winooski, VT, USA) and MicroBeta2.
T1 sequence (O77239 whole entry): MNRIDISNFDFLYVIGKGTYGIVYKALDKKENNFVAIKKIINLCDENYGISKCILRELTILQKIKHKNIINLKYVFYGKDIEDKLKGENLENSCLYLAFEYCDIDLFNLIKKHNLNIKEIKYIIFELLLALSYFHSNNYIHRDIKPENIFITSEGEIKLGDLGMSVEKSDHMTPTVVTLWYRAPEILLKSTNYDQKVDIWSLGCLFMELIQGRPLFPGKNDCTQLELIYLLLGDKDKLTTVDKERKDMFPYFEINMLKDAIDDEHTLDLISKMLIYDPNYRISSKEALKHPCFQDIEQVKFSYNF

[2] = target: T2, Putative uncharacterized protein pk7 (Plasmodium falciparum, UniProt O96214); assay: Final concentrations were 1 uM ATP, 2 mM DTT, 20 mM MgCl2, 2 mM MnCl2, 0.01% BSA, and 6 ug/ml PK7, in a buffer of 20 mM Tris-HCl (pH 7.5). The enzyme itself was the only substrate present (since autophosphorylation occurs); 100 uM 1NA-PP1 was used as a control inhibitor. Incubation time was 3 hours.
T2 sequence (O96214 whole entry): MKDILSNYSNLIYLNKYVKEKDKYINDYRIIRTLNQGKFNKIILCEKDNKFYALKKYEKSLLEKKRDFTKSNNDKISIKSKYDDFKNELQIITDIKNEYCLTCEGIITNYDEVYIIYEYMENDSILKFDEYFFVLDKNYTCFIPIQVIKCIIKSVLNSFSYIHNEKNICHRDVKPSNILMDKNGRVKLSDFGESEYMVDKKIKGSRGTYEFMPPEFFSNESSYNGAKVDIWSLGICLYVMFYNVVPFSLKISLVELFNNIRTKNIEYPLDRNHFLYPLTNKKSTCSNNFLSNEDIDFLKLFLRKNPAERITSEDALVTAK

[3] = target: T3, Mitogen-activated protein kinase (Plasmodium falciparum, UniProt Q25917); assay: Final concentrations were 1 uM ATP, 0.5 mM DTT, 1 mM MgCl2, 0.5 mg/mL BSA, and 10 ug/ml MAP2 in a buffer of 50 mM HEPES (pH 7.0). 0.5 mg/mL histone III-S served as the substrate (13); 100 uM AMP-PNP, an ATP analog, was used as a control inhibitor. Incubation time was 4 hours.
T3 sequence (Q25917 whole entry): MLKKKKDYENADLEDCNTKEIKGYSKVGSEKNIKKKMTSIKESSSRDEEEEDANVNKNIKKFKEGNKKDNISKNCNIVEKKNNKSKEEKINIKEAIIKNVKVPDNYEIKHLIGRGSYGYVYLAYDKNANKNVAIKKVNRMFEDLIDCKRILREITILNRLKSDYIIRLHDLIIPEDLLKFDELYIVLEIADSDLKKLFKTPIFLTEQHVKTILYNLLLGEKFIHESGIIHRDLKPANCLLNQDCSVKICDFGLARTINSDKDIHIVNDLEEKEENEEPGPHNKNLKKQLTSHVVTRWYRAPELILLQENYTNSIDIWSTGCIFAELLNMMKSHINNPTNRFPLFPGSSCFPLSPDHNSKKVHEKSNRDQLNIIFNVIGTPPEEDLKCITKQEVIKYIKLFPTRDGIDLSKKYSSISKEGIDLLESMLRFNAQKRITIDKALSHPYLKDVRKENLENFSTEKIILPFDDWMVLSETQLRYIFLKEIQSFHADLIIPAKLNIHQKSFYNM

[4] = target: Calcium-dependent protein kinase 1 (Plasmodium falciparum, UniProt P62344); assay: MMV: CDPK1 Protein kinase inhibition assay using recombinant PfCDPK1, syntide 2 peptide substrate, ATP and KinaseGlo to measure % inhibition at 1 uM MMV box compound.
[5] = target: T4, Calcium-dependent protein kinase 4 (Plasmodium falciparum (isolate 3D7), UniProt Q8IBS5); assay: MMV: CDPK4 Protein kinase inhibition assay using recombinant PfCDPK4, syntide2 peptide substrate, ATP and KinaseGlo to measure % inhibition at 1 uM MMV box compound.
T4 sequence (Q8IBS5 whole entry): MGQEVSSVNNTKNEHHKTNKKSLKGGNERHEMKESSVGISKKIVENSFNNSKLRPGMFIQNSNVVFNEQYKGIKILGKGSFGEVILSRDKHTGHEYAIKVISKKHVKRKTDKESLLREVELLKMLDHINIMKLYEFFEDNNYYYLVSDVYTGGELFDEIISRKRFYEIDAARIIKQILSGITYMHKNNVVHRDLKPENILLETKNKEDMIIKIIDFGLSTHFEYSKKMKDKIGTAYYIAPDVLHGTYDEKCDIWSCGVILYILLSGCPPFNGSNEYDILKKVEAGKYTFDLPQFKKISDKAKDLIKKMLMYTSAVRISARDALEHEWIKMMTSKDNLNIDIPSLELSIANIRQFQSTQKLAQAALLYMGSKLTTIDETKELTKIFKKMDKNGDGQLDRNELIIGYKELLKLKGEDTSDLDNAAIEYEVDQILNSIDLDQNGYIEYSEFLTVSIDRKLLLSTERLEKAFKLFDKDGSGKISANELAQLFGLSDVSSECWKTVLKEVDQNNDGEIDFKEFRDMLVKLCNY

Proline--tRNA ligase = target: T5, Proline--tRNA ligase (Plasmodium falciparum (isolate 3D7), UniProt Q8I5R7); assay: MMV: ProRS recombinant Plasmodium falciparum Prolyl-tRNA-synthetase, assay with yeast tRNA, ATP, and proline and 3 uM MMV malaria box compound, assay read out with kinase glo as % inhibition.
T5 sequence (Q8I5R7 whole entry): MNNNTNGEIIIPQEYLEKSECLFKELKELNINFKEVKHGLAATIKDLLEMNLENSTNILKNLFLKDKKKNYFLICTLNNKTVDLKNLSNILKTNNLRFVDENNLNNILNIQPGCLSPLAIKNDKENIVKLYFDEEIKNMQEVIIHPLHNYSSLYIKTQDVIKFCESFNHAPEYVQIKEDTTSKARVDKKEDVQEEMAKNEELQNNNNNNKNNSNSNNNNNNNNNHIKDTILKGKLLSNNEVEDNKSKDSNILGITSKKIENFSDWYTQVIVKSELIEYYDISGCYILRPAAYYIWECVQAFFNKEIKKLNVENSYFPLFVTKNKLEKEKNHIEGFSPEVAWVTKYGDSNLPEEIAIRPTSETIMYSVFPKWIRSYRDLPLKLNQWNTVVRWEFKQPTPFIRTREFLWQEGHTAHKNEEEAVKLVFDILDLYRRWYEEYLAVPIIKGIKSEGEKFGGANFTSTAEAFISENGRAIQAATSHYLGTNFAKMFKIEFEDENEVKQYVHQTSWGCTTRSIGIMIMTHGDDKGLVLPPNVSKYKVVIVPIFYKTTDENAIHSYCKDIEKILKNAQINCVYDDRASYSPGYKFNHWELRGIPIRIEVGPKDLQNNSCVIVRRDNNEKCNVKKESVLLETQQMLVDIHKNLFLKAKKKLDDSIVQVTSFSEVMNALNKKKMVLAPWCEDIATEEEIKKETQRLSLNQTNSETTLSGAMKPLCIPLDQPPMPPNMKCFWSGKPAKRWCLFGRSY

Lysine--tRNA ligase = Lysine--tRNA ligase (Plasmodium falciparum (isolate 3D7), UniProt Q8IDJ8); assay: MMV: KRS recombinant Plasmodium falciparum Lysyl-tRNA-synthetase, assay with yeast tRNA, ATP, and lysine and 3 uM MMV malaria box compound, assay read out with kinase glo as % inhibition.
Chain of Lysine--tRNA ligase (Q8IDJ8 whole entry): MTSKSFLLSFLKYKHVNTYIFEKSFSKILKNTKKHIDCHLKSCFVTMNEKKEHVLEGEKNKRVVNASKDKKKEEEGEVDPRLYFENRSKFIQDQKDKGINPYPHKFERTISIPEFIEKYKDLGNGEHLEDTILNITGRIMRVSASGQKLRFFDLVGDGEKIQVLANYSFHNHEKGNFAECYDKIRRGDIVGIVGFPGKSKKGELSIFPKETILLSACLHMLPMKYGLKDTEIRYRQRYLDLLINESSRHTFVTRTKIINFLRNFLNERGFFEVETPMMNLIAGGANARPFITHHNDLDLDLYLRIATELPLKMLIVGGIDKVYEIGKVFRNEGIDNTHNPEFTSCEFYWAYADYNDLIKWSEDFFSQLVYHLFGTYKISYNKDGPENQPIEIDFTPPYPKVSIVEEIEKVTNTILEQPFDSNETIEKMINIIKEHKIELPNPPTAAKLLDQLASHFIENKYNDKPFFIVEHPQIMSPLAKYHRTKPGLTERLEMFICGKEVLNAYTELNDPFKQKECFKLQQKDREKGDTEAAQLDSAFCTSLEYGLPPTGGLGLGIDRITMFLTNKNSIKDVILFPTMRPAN

Chain of Calcium-dependent protein kinase 1 (P62344 whole entry): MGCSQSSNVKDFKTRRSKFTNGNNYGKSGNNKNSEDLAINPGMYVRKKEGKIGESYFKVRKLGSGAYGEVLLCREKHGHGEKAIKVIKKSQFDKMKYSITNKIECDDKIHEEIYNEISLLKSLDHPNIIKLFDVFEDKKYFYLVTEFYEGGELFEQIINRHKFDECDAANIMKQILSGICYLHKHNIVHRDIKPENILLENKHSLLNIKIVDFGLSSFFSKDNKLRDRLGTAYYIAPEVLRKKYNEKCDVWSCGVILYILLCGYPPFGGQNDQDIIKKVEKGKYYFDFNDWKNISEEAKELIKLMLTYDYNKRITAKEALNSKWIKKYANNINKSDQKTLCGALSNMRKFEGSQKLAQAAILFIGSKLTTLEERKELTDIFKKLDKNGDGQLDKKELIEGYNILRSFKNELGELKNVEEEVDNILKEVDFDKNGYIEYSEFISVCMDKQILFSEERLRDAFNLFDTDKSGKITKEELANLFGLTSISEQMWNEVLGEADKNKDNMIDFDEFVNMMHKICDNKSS

Row | Compound | IC50 [1] [nM] | IC50 [2] [nM] | IC50 [3] [nM] | IC50 [4] [nM] | IC50 [5] [nM] | IC50 (Proline--tRNA ligase) [nM] | IC50 (Lysine--tRNA ligase) [nM]
1 | Cc1cccc(-n2ncc3c(O)nc(-n4nc(C)cc4NC(=O)c4cc5ccccc5o4)nc32)c1 | > 1000 | > 1000 | > 1000 | > 1000 | > 1000 | > 2500 | > 2500
2 | Oc1ccccc1CN1CCC2(CCCN(Cc3ccccc3F)C2)C1 (configuration not stated) | > 1000 | > 1000 | > 1000 | > 1000 | > 1000 | > 2500 | > 2500
3 | COc1cc2cc(C(=O)Nc3ccccc3)c(N)nc2cc1OC | > 1000 | > 1000 | > 1000 | > 1000 | > 1000 | > 2500 | > 2500
4 | Cc1[nH]c(-c2ccc(F)cc2)cc1C(=O)NC1CCN(Cc2ccccc2)CC1 | > 1000 | > 1000 | > 1000 | > 1000 | > 1000 | > 2500 | > 2500
5 | Oc1ccccc1CN1CCN(C(c2ccccc2)c2ccccc2)CC1 | > 1000 | > 1000 | > 1000 | > 1000 | > 1000 | > 2500 | > 2500
6 | O=C(NC1CCCC1)c1ccc(N2CCC(NCc3cccc(C(F)(F)F)c3)CC2)cc1 | > 1000 | > 1000 | > 1000 | > 1000 | > 1000 | > 2500 | > 2500
7 | CCN(CC)CCn1c(=N)n(CC(O)c2ccc(Cl)c(Cl)c2)c2ccccc21 (configuration not stated) | > 1000 | > 1000 | > 1000 | > 1000 | > 1000 | > 2500 | > 2500
8 | CN1CCN(c2c3c(c(C#N)c4nc5ccccc5n24)CCC3)CC1 | > 1000 | > 1000 | > 1000 | > 1000 | > 1000 | > 2500 | > 2500
9 | COc1nc(Nc2ccc(C(C)C)cc2)nc(OC)n1 | > 1000 | > 1000 | > 1000 | > 1000 | > 1000 | > 2500 | > 2500
10 | CCN(CC)CCNc1ncnc2c1[nH]c1ccc(Br)cc12 | > 1000 | > 1000 | > 1000 | > 1000 | > 1000 | > 2500 | > 2500
11 | CC(C)(C)C(=O)Nc1ccc(C(=O)Nc2cccc(-c3nc4ccccc4[nH]3)c2)cc1 | > 1000 | > 1000 | > 1000 | > 1000 | > 1000 | > 2500 | > 2500
12 | COc1ccc(-c2nonc2NC(=O)c2cccc(C)c2)cc1OC | > 1000 | > 1000 | > 1000 | > 1000 | > 1000 | > 2500 | > 2500
13 | O=C(Nc1ccc(N2CCN(Cc3ccccc3)CC2)cc1)c1cccs1 | > 1000 | > 1000 | > 1000 | > 1000 | > 1000 | > 2500 | > 2500
14 | O=C(Nc1ccc(N2CCCCC2)c(Cl)c1)c1ccc(Br)o1 | > 1000 | > 1000 | > 1000 | > 1000 | > 1000 | > 2500 | > 2500
15 | CC(C)(C)c1ccc(C(=O)Nc2nc3ccccc3s2)cc1 | > 1000 | > 1000 | > 1000 | > 1000 | > 1000 | > 2500 | > 2500
16 | CC1CC(C)CN(C(=O)c2ccc(Cl)cc2Cl)C1 (configuration not stated) | > 1000 | > 1000 | > 1000 | > 1000 | > 1000 | > 2500 | > 2500
17 | COc1ccc(C2N(C)c3ccccc3N2C)cc1 | > 1000 | > 1000 | > 1000 | > 1000 | > 1000 | > 2500 | > 2500
18 | CC(C)OCc1cc(CN2CCN(c3cccc(Cl)c3)CC2)c(O)c2ncccc12 | > 1000 | > 1000 | > 1000 | > 1000 | > 1000 | > 2500 | > 2500
19 | CCCN(CCC)CCCNC(=O)c1cc2c(-c3ccc(OC)c(OC)c3)nn(C)c2s1 | > 1000 | > 1000 | > 1000 | > 1000 | > 1000 | > 2500 | > 2500
20 | O=C(NCC1Cc2cccc(-c3ccncc3)c2O1)c1csc2c1CCCC2 (configuration not stated) | > 1000 | > 1000 | > 1000 | > 1000 | > 1000 | > 2500 | > 2500
21 | C=CCc1c(C)nc2ccccc2c1O | > 1000 | > 1000 | > 1000 | > 1000 | > 1000 | > 2500 | > 2500
